Experiment [1] concerns HepG2. Put plainly: Cytotoxicity against HepG2. The experiment is classed as cell-based. Conditions: HepG2 human cell line.
Experiment [2] concerns large panel of pathogens. The following applies: pure DD; cited from earlier work.

No end group written: not given here.

A word on the IC50: it is the concentration needed to halve the response being measured. A lower IC50 goes with inhibition by little substance. “D32: engineered darobactin, core peptide WNWCKRW, cysteine disulfide-bonded to L-cysteine and lactic acid (not fully specified; also: Cys4 disulfide-bonded to L-cysteine, lactic acid attached, position not given here)” gave an IC50 in experiment [1] of over 37 µg/mL.

Consider “WNWTRSF (also: bicyclic or more (positions not given here)) [DD]”, for which the “decrease in activity when comparing DA and DD, fold” value in experiment [2] is listed as 16 fold.

The values above are taken from article PMC10107326 (Angewandte Chemie (International Ed. in English), 2022).
